# According to patent US11548884B2, “Cyclic amidine compounds for the treatment of autoimmune disease” (Hoffmann-La Roche Inc., priority 2018, dated 2023):
# Biological target: T1, human TLR9 (Homo sapiens, UniProt Q9NR96)
# T1 sequence (Q9NR96 26-1032): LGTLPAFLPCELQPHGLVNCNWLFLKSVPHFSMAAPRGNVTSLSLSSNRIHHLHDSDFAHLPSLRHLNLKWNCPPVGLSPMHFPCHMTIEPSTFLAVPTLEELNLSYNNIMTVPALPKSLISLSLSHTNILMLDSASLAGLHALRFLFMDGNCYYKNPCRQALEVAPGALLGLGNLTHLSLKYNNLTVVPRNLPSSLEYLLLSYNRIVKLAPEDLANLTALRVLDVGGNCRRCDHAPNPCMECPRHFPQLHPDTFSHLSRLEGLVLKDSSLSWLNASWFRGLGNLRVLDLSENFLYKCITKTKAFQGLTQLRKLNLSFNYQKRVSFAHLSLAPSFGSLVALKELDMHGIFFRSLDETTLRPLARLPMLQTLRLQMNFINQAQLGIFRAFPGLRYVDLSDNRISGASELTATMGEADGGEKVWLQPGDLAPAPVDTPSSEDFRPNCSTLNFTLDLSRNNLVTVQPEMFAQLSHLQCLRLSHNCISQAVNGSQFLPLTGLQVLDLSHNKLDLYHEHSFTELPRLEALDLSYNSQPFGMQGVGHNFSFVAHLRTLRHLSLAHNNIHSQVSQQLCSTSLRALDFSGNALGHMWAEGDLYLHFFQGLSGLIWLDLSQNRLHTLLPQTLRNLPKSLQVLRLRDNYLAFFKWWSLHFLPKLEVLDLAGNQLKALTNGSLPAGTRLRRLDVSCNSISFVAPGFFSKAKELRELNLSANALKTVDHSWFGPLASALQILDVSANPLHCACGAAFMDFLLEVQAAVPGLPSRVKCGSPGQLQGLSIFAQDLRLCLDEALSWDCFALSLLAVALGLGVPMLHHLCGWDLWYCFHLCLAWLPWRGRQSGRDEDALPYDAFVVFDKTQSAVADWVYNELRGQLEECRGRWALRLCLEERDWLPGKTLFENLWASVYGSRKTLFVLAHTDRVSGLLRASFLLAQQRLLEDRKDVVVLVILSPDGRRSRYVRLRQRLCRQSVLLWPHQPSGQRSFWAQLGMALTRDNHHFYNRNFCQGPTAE
# Assay: HEK293-Blue-hTLR-9 cells assay (SEAP reporter, ODN2006 stimulation)
# Assay type: cell-based
# Conditions: HEK293-Blue-hTLR9 cells, ODN2006 ligand, 20 h incubation
# Protocol: The following tests were carried out in order to determine the activity of the compounds of formula (I) in HEK293-Blue-hTLR-7/8/9 cells assay.
# HEK293-Blue-hTLR-9 Cells Assay:
# A stable HEK293-Blue-hTLR-9 cell line was purchased from InvivoGen (Cat. #: hkb-htlr9, San Diego, Calif., USA). These cells were originally designed for studying the stimulation of human TLR9 by monitoring the activation of NF-κB. A SEAP (secreted embryonic alkaline phosphatase) reporter gene was placed under the control of the IFN-β minimal promoter fused to five NF-κB and AP-1-binding sites. The SEAP was induced by activating NF-κB and AP-1 via stimulating HEK-Blue hTLR9 cells with TLR9 ligands. Therefore the reporter expression was declined by TLR9 antagonist under the stimulation of a ligand, such as ODN2006 (Cat. #: tlrl-2006-1, Invivogen, San Diego, Calif., USA), for incubation of 20 h. The cell culture supernatant SEAP reporter activity was determined using QUANTI-Blue™ kit (Cat. #: rep-qb1, Invivogen, San Diego, Calif., USA) at a wavelength of 640 nm, a detection medium that turns purple or blue in the presence of alkaline phosphatase.
# HEK293-Blue-hTLR9 cells were incubated at a density of 250,000˜450,000 cells/mL in a volume of 170 μL in a 96-well plate in Dulbecco's Modified Eagle's medium (DMEM) containing 4.5 g/L glucose, 50 U/mL penicillin, […], 2 mM L-glutamine, 10% (v/v) heat-inactivated fetal bovine serum with addition of 20 μL test compound in a serial dilution in the presence of final DMSO at 1% and 10 μL of 20 uM ODN2006 in above DMEM, perform incubation under 37° C. in a CO2 incubator for 20 h. Then 20 μL of the supernatant from each well was incubated with 180 μL Quanti-blue substrate solution at 37° C. for 2 h and the absorbance was read at 620˜655 nm using a spectrophotometer. The signalling pathway that TLR9 activation leads to downstream NF-κB activation has been widely accepted, and therefore similar reporter assay was modified for evaluating TLR9 antagonist.
row,Structure (SMILES),IC50 [nM]
1,"C[C@@H]1CN(c2ccc(C#N)c3ncccc23)C[C@H](C2=Nc3cccc(N4CCNCC4)c3CN2)O1 [Example 6, 5-[(2R,6R)-2-methyl-6-(5-piperazin-1-yl-3,4-dihydroquinazolin-2-yl)morpholin-4-yl]quinoline-8-carbonitrile]",50
2,"C[C@@H]1CN(c2ccc(C#N)c3ncccc23)C[C@H](C2=Nc3ccc(N4CCNCC4)cc3CN2)O1 [Example 7, 5-[(2R,6R)-2-methyl-6-(6-piperazin-1-yl-3,4-dihydroquinazolin-2-yl)morpholin-4-yl]quinoline-8-carbonitrile]",102
3,"C[C@@H]1CN(c2ccc(C#N)c3ncccc23)C[C@H](C2=Nc3cc(N4CCNCC4)ccc3CN2)O1 [Example 8, 5-[(2R,6R)-2-methyl-6-(7-piperazin-1-yl-3,4-dihydroquinazolin-2-yl)morpholin-4-yl]quinoline-8-carbonitrile]",65
4,"C[C@@H]1CN(c2ccc(C#N)c3ncccc23)C[C@H](C2=Nc3c(cccc3N3CCNCC3)CN2)O1 [Example 9, 5-[(2R,6R)-2-methyl-6-(8-piperazin-1-yl-3,4-dihydroquinazolin-2-yl)morpholin-4-yl]quinoline-8-carbonitrile]",97
5,"C[C@@H]1CN(c2ccc(C#N)c3ncccc23)C[C@H](C2=Nc3cccc(N4CCN(C)CC4)c3CN2)O1 [Example 12, 5-[(2R,6R)-2-methyl-6-[5-(4-methylpiperazin-1-yl)-3,4-dihydroquinazolin-2-yl]morpholin-4-yl]quinoline-8-carbonitrile]",42
6,"C[C@@H]1CN(c2ccc(C#N)c3ncccc23)C[C@H](C2=Nc3cccc(N4CCC5(CCNC5)C4)c3CN2)O1 (stereo partly drawn) [Example 13, 5-[(2R,6R)-2-[5-(2,7-diazaspiro[4.4]nonan-2-yl)-3,4-dihydroquinazolin-2-yl]-6-methyl-morpholin-4-yl]quinoline-8-carbonitrile]",313
7,"C[C@@H]1CN(c2ccc(C#N)c3ncccc23)C[C@H](C2=Nc3cccc(C4=CCNCC4)c3CCN2)O1 [Example 16, 5-[(2R,6R)-2-methyl-6-[6-(1,2,3,6-tetrahydropyridin-4-yl)-4,5-dihydro-3H-1,3-benzodiazepin-2-yl]morpholin-4-yl]quinoline-8-carbonitrile]",64
8,"C[C@@H]1CN(c2ccc(C#N)c3ncccc23)C[C@H](C2=Nc3ccc(N4CCNCC4)cc3CCN2)O1 [Example 17, 5-[(2R,6R)-2-methyl-6-(7-piperazin-1-yl-4,5-dihydro-3H-1,3-benzodiazepin-2-yl)morpholin-4-yl]quinoline-8-carbonitrile]",49
9,"C[C@@H]1CN(c2ccc(C#N)c3ncccc23)C[C@H](C2=Nc3cccc(C4CCNCC4)c3CN2)O1 [Example 18, 5-[(2R,6R)-2-methyl-6-[5-(4-piperidyl)-3,4-dihydroquinazolin-2-yl]morpholin-4-yl]quinoline-8-carbonitrile]",90
